Data published in ChEMBL document CHEMBL3822358 (J Med Chem, 2016).

What was measured:
[1] = biological target: Insulin-like growth factor 1 receptor (Homo sapiens, UniProt P08069)
[2] = biological target: Insulin receptor (Homo sapiens, UniProt P06213)
Description: Inhibition of human InsR using myelin basic protein as substrate and [gamma-33P]ATP measured after 1 hr

[3] = biological target: T1, ALK tyrosine kinase receptor (Homo sapiens, UniProt Q9UM73)
Target sequence in this assay (Q9UM73 whole entry): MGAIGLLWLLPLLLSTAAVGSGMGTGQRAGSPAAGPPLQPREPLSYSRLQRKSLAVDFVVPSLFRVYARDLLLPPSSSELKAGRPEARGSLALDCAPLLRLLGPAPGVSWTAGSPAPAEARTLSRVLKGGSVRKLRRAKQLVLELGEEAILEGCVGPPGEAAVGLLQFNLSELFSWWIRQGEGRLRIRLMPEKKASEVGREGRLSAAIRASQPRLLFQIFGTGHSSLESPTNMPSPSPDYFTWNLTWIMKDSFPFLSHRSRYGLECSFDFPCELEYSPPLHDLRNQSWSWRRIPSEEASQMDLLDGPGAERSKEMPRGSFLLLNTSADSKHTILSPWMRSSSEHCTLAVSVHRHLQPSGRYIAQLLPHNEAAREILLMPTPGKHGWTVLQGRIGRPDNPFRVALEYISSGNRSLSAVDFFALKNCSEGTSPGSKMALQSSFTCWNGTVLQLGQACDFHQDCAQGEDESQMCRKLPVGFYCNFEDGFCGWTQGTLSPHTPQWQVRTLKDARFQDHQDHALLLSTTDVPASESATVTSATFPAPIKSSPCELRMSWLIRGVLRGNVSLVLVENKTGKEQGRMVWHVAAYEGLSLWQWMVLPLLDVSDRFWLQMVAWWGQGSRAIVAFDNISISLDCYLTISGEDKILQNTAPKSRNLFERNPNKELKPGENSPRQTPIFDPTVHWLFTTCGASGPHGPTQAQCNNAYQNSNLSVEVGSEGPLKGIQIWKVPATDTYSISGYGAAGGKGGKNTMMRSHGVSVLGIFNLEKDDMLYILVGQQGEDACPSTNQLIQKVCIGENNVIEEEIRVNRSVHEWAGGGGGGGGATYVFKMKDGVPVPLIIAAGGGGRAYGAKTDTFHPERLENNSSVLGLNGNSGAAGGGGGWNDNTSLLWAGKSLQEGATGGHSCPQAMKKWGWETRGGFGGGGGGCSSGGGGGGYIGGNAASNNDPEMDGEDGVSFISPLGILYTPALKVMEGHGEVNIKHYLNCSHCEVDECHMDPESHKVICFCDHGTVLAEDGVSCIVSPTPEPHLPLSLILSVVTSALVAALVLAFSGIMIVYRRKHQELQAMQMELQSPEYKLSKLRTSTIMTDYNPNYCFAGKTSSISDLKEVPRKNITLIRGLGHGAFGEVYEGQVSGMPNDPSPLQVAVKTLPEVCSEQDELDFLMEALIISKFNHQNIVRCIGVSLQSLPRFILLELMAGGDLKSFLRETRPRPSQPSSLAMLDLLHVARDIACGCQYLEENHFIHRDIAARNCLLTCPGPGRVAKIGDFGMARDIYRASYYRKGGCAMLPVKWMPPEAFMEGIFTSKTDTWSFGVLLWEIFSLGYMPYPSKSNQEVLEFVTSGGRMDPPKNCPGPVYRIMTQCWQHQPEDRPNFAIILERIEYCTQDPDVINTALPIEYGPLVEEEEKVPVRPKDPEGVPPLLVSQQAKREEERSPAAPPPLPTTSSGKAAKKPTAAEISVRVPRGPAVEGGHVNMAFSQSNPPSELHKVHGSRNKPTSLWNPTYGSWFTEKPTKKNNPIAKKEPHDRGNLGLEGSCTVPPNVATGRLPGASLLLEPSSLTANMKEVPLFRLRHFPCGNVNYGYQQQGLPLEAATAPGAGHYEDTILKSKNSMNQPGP
Description: Inhibition of human ALK using poly[Glu:Tyr] (4:1) as substrate and [gamma-33P]ATP measured after 1 hr

[4] = cells; conditions: Homo sapiens, KARPAS-299, 72 h
Description: Antiproliferative activity against human ALK-positive KARPAS299 cells assessed as reduction in cell viability measured after 72 hrs by CellTiter 96 aqueous one solution cell proliferation assay

[5] = cells; conditions: Homo sapiens, U-937, 72 h
Description: Antiproliferative activity against human ALK-negative U937 cells assessed as reduction in cell viability measured after 72 hrs by CellTiter 96 aqueous one solution cell proliferation assay

[6] = AUC (0 to infinity) in CD rat at 3 mg/kg, iv by LC-MS/MS analysis; format: ADME, organism-based; design: dose 3 mg/kg, time infinity, route intravenous; conditions: CD, in vivo
[7] = Clearance in CD rat at 3 mg/kg, iv by LC-MS/MS analysis; format: ADME, organism-based; conditions: in vivo
[8] = Half life in CD rat at 3 mg/kg, iv by LC-MS/MS analysis; format: ADME, organism-based; conditions: CD, in vivo
[9] = Volume of distribution at steady state in CD rat at 3 mg/kg, iv by LC-MS/MS analysis; format: ADME, organism-based; conditions: CD, in vivo, read-out: Vdss
[10] = Cmax in CD rat at 10 mg/kg, po by LC-MS/MS analysis; format: ADME, organism-based; design: dose 10 mg/kg, route oral; conditions: in vivo
[11] = AUC (0 to infinity) in CD rat at 10 mg/kg, po by LC-MS/MS analysis; format: ADME, organism-based; design: dose 10 mg/kg, route oral, time infinity; conditions: in vivo
[12] = Tmax in CD rat at 10 mg/kg, po by LC-MS/MS analysis; format: ADME, organism-based; conditions: in vivo
[13] = Half life in CD rat at 10 mg/kg, po by LC-MS/MS analysis; format: ADME, organism-based; conditions: in vivo
[14] = Oral bioavailability in CD rat at 10 mg/kg by LC-MS/MS analysis; format: ADME, organism-based; conditions: in vivo
[15] = biological target: T1, ALK tyrosine kinase receptor; test: Inhibition of ALK phosphorylation in mouse xenografted with human KARPAS299 cells assessed as p-ALK level at 25 mg/kg, po administered as single dose measured after 10 hrs relative to 2 hrs vehicle-treated tumor; format: organism-based; design: scale not given: the % may be the effect or the level left; conditions: KARPAS-299
Target sequence in this assay (Q9UM73 19-1620 limits assumed): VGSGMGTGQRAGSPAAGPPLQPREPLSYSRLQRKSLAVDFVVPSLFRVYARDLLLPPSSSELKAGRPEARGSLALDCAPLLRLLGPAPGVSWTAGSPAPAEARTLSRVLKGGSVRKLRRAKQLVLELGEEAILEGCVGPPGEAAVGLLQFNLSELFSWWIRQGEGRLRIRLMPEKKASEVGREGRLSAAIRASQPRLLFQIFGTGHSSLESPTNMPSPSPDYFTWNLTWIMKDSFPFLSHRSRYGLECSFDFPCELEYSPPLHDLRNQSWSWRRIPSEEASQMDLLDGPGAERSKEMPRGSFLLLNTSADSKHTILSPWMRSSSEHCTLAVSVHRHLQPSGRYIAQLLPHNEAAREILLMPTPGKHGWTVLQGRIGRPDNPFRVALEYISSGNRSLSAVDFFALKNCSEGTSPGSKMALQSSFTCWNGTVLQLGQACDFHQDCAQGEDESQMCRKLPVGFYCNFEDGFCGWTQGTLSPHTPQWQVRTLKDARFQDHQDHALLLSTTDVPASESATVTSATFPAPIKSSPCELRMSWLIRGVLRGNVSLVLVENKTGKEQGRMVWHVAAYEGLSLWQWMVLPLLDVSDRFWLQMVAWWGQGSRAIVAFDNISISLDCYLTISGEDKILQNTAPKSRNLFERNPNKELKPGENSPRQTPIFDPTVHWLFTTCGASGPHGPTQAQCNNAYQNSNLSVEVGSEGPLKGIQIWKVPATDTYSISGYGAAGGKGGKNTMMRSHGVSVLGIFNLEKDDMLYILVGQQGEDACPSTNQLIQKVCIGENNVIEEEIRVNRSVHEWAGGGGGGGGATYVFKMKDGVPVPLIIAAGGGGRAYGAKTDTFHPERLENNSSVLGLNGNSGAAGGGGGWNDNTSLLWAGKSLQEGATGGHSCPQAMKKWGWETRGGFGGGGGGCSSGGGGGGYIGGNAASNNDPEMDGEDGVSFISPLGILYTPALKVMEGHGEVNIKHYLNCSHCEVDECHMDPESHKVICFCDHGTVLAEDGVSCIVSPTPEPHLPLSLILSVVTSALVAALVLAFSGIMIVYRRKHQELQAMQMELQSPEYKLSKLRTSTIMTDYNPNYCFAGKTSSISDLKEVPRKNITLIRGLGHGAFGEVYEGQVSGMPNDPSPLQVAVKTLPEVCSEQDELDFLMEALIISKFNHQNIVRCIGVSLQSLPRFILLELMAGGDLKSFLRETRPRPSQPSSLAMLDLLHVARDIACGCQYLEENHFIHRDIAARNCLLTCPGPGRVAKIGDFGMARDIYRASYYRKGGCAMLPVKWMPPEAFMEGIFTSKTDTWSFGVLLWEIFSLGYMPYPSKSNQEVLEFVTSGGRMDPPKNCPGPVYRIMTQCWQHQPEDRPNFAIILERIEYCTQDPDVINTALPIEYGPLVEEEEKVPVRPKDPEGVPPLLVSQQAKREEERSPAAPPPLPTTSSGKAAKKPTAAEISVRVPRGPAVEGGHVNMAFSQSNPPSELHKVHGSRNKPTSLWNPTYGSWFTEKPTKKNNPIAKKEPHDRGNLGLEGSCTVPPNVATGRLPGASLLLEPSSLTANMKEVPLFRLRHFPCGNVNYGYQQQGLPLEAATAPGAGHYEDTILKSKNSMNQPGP

[16] = biological target: T1, ALK tyrosine kinase receptor; test: Inhibition of ALK phosphorylation in mouse xenografted with human KARPAS299 cells assessed as p-ALK level at 25 mg/kg, po administered as single dose measured after 16 hrs relative to 2 hrs vehicle-treated tumor; format: organism-based; design: scale not given: the % may be the effect or the level left; conditions: KARPAS-299
Target sequence in this assay (Q9UM73 19-1620 limits assumed): as above

[17] = biological target: T1, ALK tyrosine kinase receptor; test: Inhibition of ALK phosphorylation in mouse xenografted with human KARPAS299 cells assessed as p-ALK level at 25 mg/kg, po administered as single dose measured after 24 hrs relative to 2 hrs vehicle-treated tumor; format: organism-based; design: scale not given: the % may be the effect or the level left; conditions: KARPAS-299
Target sequence in this assay (Q9UM73 19-1620 limits assumed): as above

Insulin-like growth factor 1 receptor, sequence (P08069 31-736 limits assumed): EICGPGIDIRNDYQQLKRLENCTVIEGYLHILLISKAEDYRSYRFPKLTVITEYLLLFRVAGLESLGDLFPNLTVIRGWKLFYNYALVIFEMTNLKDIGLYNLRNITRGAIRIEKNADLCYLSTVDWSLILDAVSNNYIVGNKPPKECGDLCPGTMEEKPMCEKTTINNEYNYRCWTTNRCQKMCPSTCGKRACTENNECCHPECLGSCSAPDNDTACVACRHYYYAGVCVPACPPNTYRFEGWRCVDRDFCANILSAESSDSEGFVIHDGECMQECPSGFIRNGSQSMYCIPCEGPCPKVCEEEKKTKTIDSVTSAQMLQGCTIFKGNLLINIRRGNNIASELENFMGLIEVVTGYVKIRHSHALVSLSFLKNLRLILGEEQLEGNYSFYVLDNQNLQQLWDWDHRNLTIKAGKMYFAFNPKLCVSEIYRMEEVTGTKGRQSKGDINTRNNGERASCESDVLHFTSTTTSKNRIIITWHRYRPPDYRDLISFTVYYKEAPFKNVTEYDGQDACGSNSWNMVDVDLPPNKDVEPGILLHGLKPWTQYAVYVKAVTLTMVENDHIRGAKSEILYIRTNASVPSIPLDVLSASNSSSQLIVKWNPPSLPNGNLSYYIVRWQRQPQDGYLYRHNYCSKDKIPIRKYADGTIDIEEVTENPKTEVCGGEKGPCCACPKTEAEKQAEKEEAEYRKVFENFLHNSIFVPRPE
Insulin-like growth factor 1 receptor, sequence (P08069 741-1367 limits assumed): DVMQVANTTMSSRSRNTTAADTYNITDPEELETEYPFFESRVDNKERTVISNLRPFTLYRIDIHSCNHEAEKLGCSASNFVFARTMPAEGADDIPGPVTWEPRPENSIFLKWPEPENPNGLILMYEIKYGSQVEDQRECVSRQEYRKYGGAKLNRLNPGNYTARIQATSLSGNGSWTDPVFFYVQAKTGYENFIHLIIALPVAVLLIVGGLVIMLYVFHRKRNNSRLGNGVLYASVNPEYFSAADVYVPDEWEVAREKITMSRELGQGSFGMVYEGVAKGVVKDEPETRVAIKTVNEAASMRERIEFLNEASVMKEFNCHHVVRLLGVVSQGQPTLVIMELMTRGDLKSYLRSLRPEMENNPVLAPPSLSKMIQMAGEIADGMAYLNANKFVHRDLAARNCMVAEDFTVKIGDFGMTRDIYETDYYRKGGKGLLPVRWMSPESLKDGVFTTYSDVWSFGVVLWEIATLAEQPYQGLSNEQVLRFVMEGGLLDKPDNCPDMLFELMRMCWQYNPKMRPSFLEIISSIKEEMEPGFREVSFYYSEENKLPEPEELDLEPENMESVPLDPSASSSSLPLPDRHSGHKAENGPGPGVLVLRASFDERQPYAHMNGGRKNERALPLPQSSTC

IC50 [1] [nM]	IC50 [2] [nM]	IC50 [3] [nM]	IC50 [4] [nM]	IC50 [5] [nM]	SMILES	other results
81.5	270	0.88	66.7	2390	COc1cc(N2CCC(N3CCCCC3)C2)ccc1Nc1ncc(Cl)c(Nc2ccccc2P(C)(C)=O)n1 (stereo unspecified)	
47.3	270	0.49	61	5680	COc1cc(N2CCC(N3CCOCC3)CC2)ccc1Nc1ncc(Cl)c(Nc2ccccc2P(C)(C)=O)n1	AUC(0-inf) [6]: 17900 ng·h/mL; clearance [7]: 2.83 mL/min/kg; half-life [8]: 3.9 h; Vd [9]: 0.78 L/kg; Cmax [10]: 2840 ng/mL; AUC(0-inf) [11]: 43600 ng·h/mL; Tmax [12]: 2 h; half-life [13]: 6.8 h; bioavailability [14]: 73%; Activity [15]: 15%; Activity [16]: 52%; Activity [17]: 50%
27	171	0.86			COc1cc(N2CCC(N3CCN(C)CC3)CC2)c(C)cc1Nc1ncc(Cl)c(Nc2ccccc2P(C)(C)=O)n1	GI50 [4]: 16 nM; GI50 [5]: 1280 nM
128	483	0.42	46.9	5310	COc1cc(N2CCC(N3CCN(C)CC3)CC2)ccc1Nc1ncc(C)c(Nc2ccccc2P(C)(C)=O)n1	
3.2	100	0.07	41.5	1720	COc1cc(N2CCC(N(C)C)CC2)ccc1Nc1ncc(Cl)c(Nc2ccccc2P(C)(C)=O)n1	
6.17	6.05	4.77			COc1cc(N2CCC(N3CCN(C)CC3)CC2)ccc1Nc1ncc(Cl)c(Nc2ccccc2C(=O)N(C)C)n1	
51.6	128	1.86			COc1cc(N2CCC(N3CCN(C)CC3)CC2)ccc1Nc1ncc(Cl)c(Nc2ccccc2C#N)n1	
		291			COc1cc(N2CCC(N3CCN(C)CC3)CC2)ccc1Nc1ncc(C(C)=O)c(Nc2ccccc2P(C)(C)=O)n1	
1.33	2.16	1.59			COc1cc(N2CCC(N3CCN(C)CC3)CC2)ccc1Nc1ncc(Cl)c(Nc2ccccc2C(C)=O)n1	
17.4	284	0.22	113	2310	COc1cc(OCCCN2CCCC2)ccc1Nc1ncc(Cl)c(Nc2ccccc2P(C)(C)=O)n1	
59.5	1180	1.03	162	1230	COc1cc(N2CCC(N3CCN(C)CC3)CC2)c(F)cc1Nc1ncc(Cl)c(Nc2ccccc2P(C)(C)=O)n1	
0.47	0.88	0.79	251	1420	COc1cc(P(C)(C)=O)ccc1Nc1ncc(Cl)c(Nc2ccccc2C(C)=O)n1	
22.1	55.2	0.96	278	2910	COc1cc(P(C)(C)=O)ccc1Nc1ncc(Cl)c(Nc2ccccc2OC)n1	
434	367	3.23	278	10600	COc1cc(N2CCC(N3CCN(C)CC3)CC2)ccc1Nc1ncc(C2CC2)c(Nc2ccccc2P(C)(C)=O)n1	
12.8	28.1	0.18	37.6	1800	COc1cc(N2CCN(CCO)CC2)ccc1Nc1ncc(Cl)c(Nc2ccccc2P(C)(C)=O)n1	AUC(0-inf) [6]: 1330 ng·h/mL; clearance [7]: 35.8 mL/min/kg; half-life [8]: 8.4 h; Vd [9]: 9.51 L/kg; Cmax [10]: 75.7 ng/mL; AUC(0-inf) [11]: 777 ng·h/mL; Tmax [12]: 4 h; half-life [13]: 2.9 h; bioavailability [14]: 18%
139	726	1.06	738	13200	COc1cc(P(C)(C)=O)ccc1Nc1ncc(Cl)c(Nc2ccccc2P(C)(C)=O)n1	
		2.1	349	20800	COc1ccccc1Nc1ncc(Cl)c(Nc2ccccc2S(=O)(=O)C(C)C)n1	
0.76	5.1	0.59			COc1cc(N2CCC(N3CCN(C)CC3)CC2)ccc1Nc1ncc(Cl)c(Nc2ccccc2S(C)(=O)=O)n1	
8.7	26	1.88	851		COc1cc(N2CCC(N3CCN(C)CC3)CC2)ccc1Nc1ncc(Cl)c(Nc2ccccc2OC)n1	
43.3	285	0.28	101	4920	COc1cc(N2CCN(C3CCN(C)CC3)CC2)ccc1Nc1ncc(Cl)c(Nc2ccccc2P(C)(C)=O)n1	
6.2	13.7	1.36	705		COc1cc(N2CCC(N3CCN(C)CC3)CC2)ccc1Nc1ncc(Cl)c(Nc2ccccc2I)n1	

IC50 [1] [nM]	IC50 [2] [nM]	IC50 [3] [nM]	IC50 [4] [nM]	IC50 [5] [nM]	SMILES	other results
0.11	14.1	0.68	613	2370	COc1cc(P(C)(C)=O)ccc1Nc1ncc(Cl)c(Nc2ccccc2C(N)=O)n1	
125	459	3.1	270	7000	CNC(=O)CN1CCN(c2ccc(Nc3ncc(Cl)c(Nc4ccccc4P(C)(C)=O)n3)c(OC)c2)CC1	
143	1680	0.39	147	24200	COc1cc(N2CCC(N3CCN(C)CC3)CC2)ccc1Nc1ncc(F)c(Nc2ccccc2P(C)(C)=O)n1	
51.4	399	0.24	77.4	5990	COc1cc(N2CCOCC2)ccc1Nc1ncc(Cl)c(Nc2ccccc2P(C)(C)=O)n1	
51.6	81.7	9.9			COc1cc(N2CCC(N3CCN(C)CC3)CC2)ccc1Nc1ncc(Cl)c(Nc2ccccc2)n1	
1.93	8.44	0.75			COc1cc(N2CCC(N3CCN(C)CC3)CC2)ccc1Nc1ncc(Cl)c(Nc2ccccc2S(=O)(=O)N(C)C)n1	
1.4	3.4	0.8			COc1cc(N2CCC(N3CCN(C)CC3)CC2)ccc1Nc1ncc(Cl)c(Nc2ccccc2C(N)=O)n1	
103	253	0.75	58.9	22400	CCOc1cc(N2CCC(N3CCN(C)CC3)CC2)ccc1Nc1ncc(Cl)c(Nc2ccccc2P(C)(C)=O)n1	
32.5	103		79.9	5450	COc1cc(N2CCN(C(C)=O)CC2)ccc1Nc1ncc(Cl)c(Nc2ccccc2P(C)(C)=O)n1	
98.1	702	0.76	322	6230	COc1cc(-c2cnn(C3CCNCC3)c2)ccc1Nc1ncc(Cl)c(Nc2ccccc2P(C)(C)=O)n1	
77.5	339	0.72	53.9	2970	COc1cc(N2CCCN(C)CC2)ccc1Nc1ncc(Cl)c(Nc2ccccc2P(C)(C)=O)n1	
0.4	4.7	0.33	405	4810	COc1cc(P(C)(C)=O)ccc1Nc1ncc(Cl)c(Nc2ccccc2S(C)(=O)=O)n1	
45.1	314	0.12	169	3460	CCP(=O)(CC)c1ccccc1Nc1nc(Nc2ccc(N3CCC(N4CCN(C)CC4)CC3)cc2OC)ncc1Cl	
42.7	489	0.33	66.9	1170	COc1cc(N2CC[C@@H](N(C)C)C2)ccc1Nc1ncc(Cl)c(Nc2ccccc2P(C)(C)=O)n1	
36.1	43.2	0.99			COc1cc(N2CCC(N3CCN(C)CC3)CC2)ccc1Nc1ncc(Cl)c(Nc2ccccc2C(C)O)n1 (stereo unspecified)	
203	700	0.68	54.6	21500	CC(C)Oc1cc(N2CCC(N3CCN(C)CC3)CC2)ccc1Nc1ncc(Cl)c(Nc2ccccc2P(C)(C)=O)n1	
38.8	162	0.49	105	3390	COc1cc(N2CCC(N3CCCN(C)CC3)CC2)ccc1Nc1ncc(Cl)c(Nc2ccccc2P(C)(C)=O)n1	
100	397	0.33	65.1	6330	COc1cc(OC2CCN(C)C2)ccc1Nc1ncc(Cl)c(Nc2ccccc2P(C)(C)=O)n1 (stereo unspecified)	
117	1680	1.19	429	13900	COc1cc(N2CCC(N3CCN(C)CC3)CC2)ccc1Nc1ncc(OC)c(Nc2ccccc2P(C)(C)=O)n1	
1.9	9.9	0.31	20	4840	COc1cc(P(C)(C)=O)ccc1Nc1ncc(Cl)c(Nc2ccccc2S(=O)(=O)C(C)C)n1	
